Assay results reported in ChEMBL document CHEMBL1201862, “PubChem BioAssay data set” (2004).
Calls of active or inactive are those of the source.

Tests used:
[1] = biological target: T1, Rac GTPase-activating protein 1 (Homo sapiens, UniProt Q9H0H5); test: blockers of MgcRacGAP-driven Rac1 GTP hydrolysis – biochemical, ADP Hunter fluorescence, primary and confirmatory, confirmation (AID 624330); type: functional
T1 sequence (Q9H0H5 whole entry): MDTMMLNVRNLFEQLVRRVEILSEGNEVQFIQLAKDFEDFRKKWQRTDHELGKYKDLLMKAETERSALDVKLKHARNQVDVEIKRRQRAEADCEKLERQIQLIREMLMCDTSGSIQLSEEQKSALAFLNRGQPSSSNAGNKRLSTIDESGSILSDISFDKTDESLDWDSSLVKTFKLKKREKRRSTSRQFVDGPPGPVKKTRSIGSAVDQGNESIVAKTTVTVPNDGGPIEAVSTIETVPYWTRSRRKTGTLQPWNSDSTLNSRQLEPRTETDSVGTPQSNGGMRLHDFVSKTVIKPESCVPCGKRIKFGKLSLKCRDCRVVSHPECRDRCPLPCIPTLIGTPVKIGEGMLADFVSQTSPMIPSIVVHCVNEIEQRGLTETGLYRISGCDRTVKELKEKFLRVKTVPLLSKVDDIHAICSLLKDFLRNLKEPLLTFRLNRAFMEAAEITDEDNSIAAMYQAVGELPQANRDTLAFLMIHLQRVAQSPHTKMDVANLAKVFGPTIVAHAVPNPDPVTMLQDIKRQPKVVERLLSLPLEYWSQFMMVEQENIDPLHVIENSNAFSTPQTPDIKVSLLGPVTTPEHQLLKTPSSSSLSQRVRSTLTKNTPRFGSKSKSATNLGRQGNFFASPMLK

[2] = NIH-3T3 fibroblast cytotoxicity, dose response, cytotoxicity control, cell-based, fluorescence, Alamar Blue, secondary assay (AID 2327); type: functional;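 also: NIH-3T3 mouse fibroblasts cultured with fluconazole at 8 µg/mL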
[3] = fluconazole-exposed Candida albicans growth modulators – fluorescence, retest, confirmation (AID 2467); type: functional, cell-based
[4] = P. falciparum Dd2 growth inhibitors, dose response, SYBR Green, cherry-picked samples (AID 1159567); type: functional, cell-based
[5] = biological target: T2, Zinc finger protein mex-5 (Caenorhabditis elegans, UniProt Q9XUB2); test: potency of MEX-5 RNA-binding blockers – biochemical, C. elegans, fluorescence polarization, dose response (AID 1960)
T2 sequence (Q9XUB2 whole entry): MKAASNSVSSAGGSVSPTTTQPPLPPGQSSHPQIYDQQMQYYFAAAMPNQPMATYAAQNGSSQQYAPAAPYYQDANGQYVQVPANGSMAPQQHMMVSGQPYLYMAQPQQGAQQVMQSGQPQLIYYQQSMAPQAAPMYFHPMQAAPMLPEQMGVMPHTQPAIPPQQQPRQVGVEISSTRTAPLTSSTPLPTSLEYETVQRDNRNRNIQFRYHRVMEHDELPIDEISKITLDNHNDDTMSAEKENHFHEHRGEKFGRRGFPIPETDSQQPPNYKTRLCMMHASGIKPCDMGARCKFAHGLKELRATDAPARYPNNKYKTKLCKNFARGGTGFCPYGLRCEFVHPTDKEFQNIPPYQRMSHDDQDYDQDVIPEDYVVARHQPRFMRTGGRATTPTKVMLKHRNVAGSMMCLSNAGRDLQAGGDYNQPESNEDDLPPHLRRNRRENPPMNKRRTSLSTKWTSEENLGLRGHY

[6] = biological target: T3, RNA-binding protein pos-1 (Caenorhabditis elegans, UniProt G5EF15); test: disruptors of C. elegans POS-1 RNA interaction – biochemical, fluorescence polarization, dose response (AID 1964);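 also: purified POS-1 fused to maltose binding protein made in E. coli; potency of compounds blocking POS-1 binding to fluorescent RNA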
T3 sequence (G5EF15 whole entry): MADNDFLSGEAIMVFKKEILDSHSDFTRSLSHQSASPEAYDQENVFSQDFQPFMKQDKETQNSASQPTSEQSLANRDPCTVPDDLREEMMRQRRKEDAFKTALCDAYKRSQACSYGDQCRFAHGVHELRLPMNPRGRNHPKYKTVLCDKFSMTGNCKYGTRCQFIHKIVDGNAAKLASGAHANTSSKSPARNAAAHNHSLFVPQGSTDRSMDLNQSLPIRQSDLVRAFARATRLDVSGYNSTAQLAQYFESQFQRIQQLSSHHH

[7] = biological target: T4, Cytochrome P450 1A2 (Homo sapiens, UniProt P05177);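 also: PubChem cytochrome P450 panel assay, CYP1A2 panel member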
T4 sequence (P05177 whole entry): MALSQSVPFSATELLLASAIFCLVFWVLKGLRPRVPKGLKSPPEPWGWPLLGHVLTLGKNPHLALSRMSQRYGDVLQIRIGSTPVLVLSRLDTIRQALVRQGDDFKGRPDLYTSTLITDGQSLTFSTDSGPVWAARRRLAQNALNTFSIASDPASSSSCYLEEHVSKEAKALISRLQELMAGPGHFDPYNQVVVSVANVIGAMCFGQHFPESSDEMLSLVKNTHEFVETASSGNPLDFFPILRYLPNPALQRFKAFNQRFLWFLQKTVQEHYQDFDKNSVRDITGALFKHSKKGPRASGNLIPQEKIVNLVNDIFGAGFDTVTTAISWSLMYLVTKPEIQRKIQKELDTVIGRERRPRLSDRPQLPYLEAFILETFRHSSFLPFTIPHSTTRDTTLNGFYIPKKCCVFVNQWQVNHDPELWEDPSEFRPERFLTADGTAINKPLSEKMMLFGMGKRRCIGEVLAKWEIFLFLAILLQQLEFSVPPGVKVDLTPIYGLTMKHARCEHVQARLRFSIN

[8] = biological target: Cytochrome P450 2C19 (Homo sapiens, UniProt P33261); test: Cytochrome panel assay with activity outcomes. Panel member name: p450-cyp2c19 Compounds with AC50 equal or less than 10 uM are considered active; type: functional; settings: read-out: AC50
[9] = biological target: Cytochrome P450 2D6 (Homo sapiens, UniProt P10635);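 also: CYP2D6 member of a cytochrome P450 panel assay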
[10] = cells; type: functional
[11] = biological target: T5, Streptokinase A (Streptococcus pyogenes serotype M1, UniProt P10520); test: viability-normalized secreted streptokinase activity reduction – plasminogen activation absorbance, OD405, dose response (AID 1914); type: functional, Streptococcus pyogenes M1 GAS;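 also: secreted streptokinase activity via plasminogen activation per viability signal from cell pellet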
T5 sequence (P10520 whole entry): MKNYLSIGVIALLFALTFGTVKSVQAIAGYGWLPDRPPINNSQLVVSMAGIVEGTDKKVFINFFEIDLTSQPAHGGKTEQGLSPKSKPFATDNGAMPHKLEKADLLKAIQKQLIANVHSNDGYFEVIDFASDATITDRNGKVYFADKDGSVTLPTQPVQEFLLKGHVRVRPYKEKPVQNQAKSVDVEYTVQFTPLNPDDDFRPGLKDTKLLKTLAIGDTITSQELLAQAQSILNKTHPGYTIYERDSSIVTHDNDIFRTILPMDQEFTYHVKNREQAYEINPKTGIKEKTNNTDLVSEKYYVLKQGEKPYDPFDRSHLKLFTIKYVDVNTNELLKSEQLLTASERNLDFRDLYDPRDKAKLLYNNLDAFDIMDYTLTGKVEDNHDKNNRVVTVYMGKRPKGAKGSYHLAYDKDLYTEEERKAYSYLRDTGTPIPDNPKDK

[12] = tested on: Streptococcus sp. 'group A'; test: Streptococcus pyogenes SK(-)GAS viability under kanamycin – luminescence, BacTiterGlo, confirmation, counter-screen for streptokinase expression inhibitor project, dose response (AID 1900); type: functional, organism-based
[13] = tested on: Streptococcus; test: GAS UMAA2166 growth inhibition – luminescence, BacTiterGlo, counter-screen for streptokinase expression inhibitor project, dose response (AID 1915); type: functional, organism-based;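 also: potency for reduction of bacterial viability or growth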
[14] = biological target: Cytochrome P450 3A4 (Homo sapiens, UniProt P08684);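 also: CYP3A4 tested as one member of a cytochrome P450 panel screen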
Chain of Cytochrome P450 3A4 (P08684 whole entry): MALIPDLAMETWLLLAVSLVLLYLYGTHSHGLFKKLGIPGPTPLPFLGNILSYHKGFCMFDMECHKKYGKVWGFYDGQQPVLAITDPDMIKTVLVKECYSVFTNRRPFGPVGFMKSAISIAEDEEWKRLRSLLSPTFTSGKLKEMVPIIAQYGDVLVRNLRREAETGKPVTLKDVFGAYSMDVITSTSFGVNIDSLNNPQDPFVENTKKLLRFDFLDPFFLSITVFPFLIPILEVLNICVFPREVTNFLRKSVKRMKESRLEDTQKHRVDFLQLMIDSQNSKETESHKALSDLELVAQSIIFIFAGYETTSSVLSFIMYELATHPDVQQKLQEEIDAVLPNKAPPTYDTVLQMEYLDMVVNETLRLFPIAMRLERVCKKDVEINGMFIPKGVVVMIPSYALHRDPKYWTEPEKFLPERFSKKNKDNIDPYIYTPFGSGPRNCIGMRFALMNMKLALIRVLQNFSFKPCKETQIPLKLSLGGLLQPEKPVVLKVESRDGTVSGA

Chain of Cytochrome P450 2D6 (P10635 whole entry): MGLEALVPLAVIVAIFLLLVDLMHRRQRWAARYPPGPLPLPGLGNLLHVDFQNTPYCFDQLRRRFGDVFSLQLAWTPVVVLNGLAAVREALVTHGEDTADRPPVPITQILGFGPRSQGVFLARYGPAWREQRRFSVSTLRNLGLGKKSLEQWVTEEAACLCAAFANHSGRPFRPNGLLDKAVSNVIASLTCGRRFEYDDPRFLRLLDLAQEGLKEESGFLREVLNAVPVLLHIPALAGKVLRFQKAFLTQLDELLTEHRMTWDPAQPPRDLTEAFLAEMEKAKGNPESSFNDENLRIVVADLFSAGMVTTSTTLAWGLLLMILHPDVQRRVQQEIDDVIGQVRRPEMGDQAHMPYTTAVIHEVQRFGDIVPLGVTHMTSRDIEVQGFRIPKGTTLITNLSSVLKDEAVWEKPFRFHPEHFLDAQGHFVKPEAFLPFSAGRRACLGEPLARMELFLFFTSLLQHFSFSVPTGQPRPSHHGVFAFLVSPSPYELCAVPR
Chain of Cytochrome P450 2C19 (P33261 whole entry): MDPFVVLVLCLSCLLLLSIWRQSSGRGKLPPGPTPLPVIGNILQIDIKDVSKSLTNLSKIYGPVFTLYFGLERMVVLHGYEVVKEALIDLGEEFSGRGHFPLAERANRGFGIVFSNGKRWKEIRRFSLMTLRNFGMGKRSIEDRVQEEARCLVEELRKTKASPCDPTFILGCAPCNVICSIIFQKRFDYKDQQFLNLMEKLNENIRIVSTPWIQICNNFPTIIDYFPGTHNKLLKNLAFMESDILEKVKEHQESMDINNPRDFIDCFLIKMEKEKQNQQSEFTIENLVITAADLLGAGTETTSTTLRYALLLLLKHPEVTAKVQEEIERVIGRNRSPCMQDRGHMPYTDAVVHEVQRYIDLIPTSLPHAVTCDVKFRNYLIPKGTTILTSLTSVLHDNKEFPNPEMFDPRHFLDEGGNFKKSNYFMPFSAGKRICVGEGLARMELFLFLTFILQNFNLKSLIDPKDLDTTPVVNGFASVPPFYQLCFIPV

SMILES: COc1ccc(NCC(O)Cn2c(C)c(C)c3ccccc32)cc1 (centres undefined)
- IC50 [1]: 70.7 µM (active)

SMILES: O=C1C2CCCN2C(c2ccccc2)N1c1ccccn1 (centres undefined)
- EC50 [2]: > 160 µM (inactive)
- EC50 [3]: > 38 µM (not active)

SMILES: Cc1ccc(S(=O)(=O)C(C#N)c2nc3ccccc3nc2N2CCN(C)CC2)cc1C (centres undefined)
- EC50 [2]: > 150 µM (inactive)
- EC50 [3]: > 38 µM (not active)

SMILES: Cc1cccc(S(=O)(=O)N2CCCCN3[C@H](C2)[C@@H](c2ccc(-c4cccnc4)cc2)[C@@H]3CO)c1
- AC50 [4]: 4.88 µM (active)

SMILES: Cc1noc(C)c1S(=O)(=O)NC1CCN(Cc2ccccc2)CC1
- EC50 [5]: 35.3 µM (active)
- EC50 [6]: 49.2 µM (active)

SMILES: COC(=O)c1cc2n(n1)CCN(Cc1ccccc1F)C2=O
- AC50 [7]: 15.8 µM (inconclusive)
- AC50 [8]: 5.01 µM (inconclusive)

SMILES: Cc1sc(NC(=O)c2ccc(Br)s2)c(C(N)=O)c1C
- EC50 [2]: > 150 µM (inactive)
- EC50 [3]: > 38 µM (not active)

SMILES: CCN(CC)c1ccc(NC(=O)c2ccc(S(=O)(=O)N3CCOCC3)cc2)cc1
- IC50 [1]: 71.9 µM (active)

SMILES: CN1CCc2c1nc1ccccc1c2NC(=O)CN1CCCC1
- IC50 [1]: 117 µM (active)

SMILES: CC(=O)Nc1cccc2cc(O)ccc12
- IC50 [1]: 36.8 µM (active)

SMILES: CS(=O)(=O)Nc1cccc(-c2ccc3ncnc(Nc4ccccc4)c3c2)c1
- AC50 [9]: 25.1 µM (inconclusive)

SMILES: O=C(C[C@@H]1C[C@H]2c3cc(NC(=O)Nc4ccccc4)ccc3O[C@H]2[C@H](CO)O1)NCc1ccccc1
- AC50 [4]: 15.9 µM (active)

SMILES: COc1ccc(S(=O)(=O)N2CC[C@@H]3[C@H]2c2cc(-c4ccc(C#N)cc4)ccc2N[C@@H]3CO)cc1
- AC50 [4]: 9.46 µM (active)

SMILES: C=C(C)C1Cc2c(C)nn(-c3nc(C)cc(C)n3)c2C1 (centres undefined)
- IC50 [10]: 3.19 µM (active)
- EC50 [11]: > 150 µM (not active)
- EC50 [12]: 25 µM (active)
- EC50 [13]: > 150 µM (not active)

SMILES: Cc1nc(Cl)cc(N/N=C/c2ccc(O)cc2O)n1
- IC50 [1]: 16.6 µM (active)

SMILES: Clc1ccccc1-c1nc(/C=N/N2CCOCC2)c2ccccn12
- IC50 [1]: 33.6 µM (active)

SMILES: CS(=O)(=O)N1CCC2(CCCN(C(=O)Nc3ccccc3)C2)CC1
- AC50 [7]: 15.8 µM (inconclusive)

SMILES: COc1ccc2c3c(n(C)c2c1)[C@H](CO)N(C(=O)c1ccccc1)CC31CCN(C(=O)c2ccccc2)CC1
- AC50 [4]: 7.29 µM (active)

SMILES: CC(C)CN(Cc1c(O)ccc2ccccc12)CC(C)C
- IC50 [1]: 47.5 µM (active)

SMILES: O=c1c(-c2cccs2)nc2cnc(Nc3ccccc3)nc2n1C[C@H]1CCCO1
- AC50 [7]: 2.51 µM (inconclusive)
- AC50 [14]: 10 µM (inconclusive)
